Blank lines part the entries; values can stand above or below the compound they belong to. Numbered stars: 1 amine (or outer) side, 2 acyl side, 3 side chain; on linkers, the order of the positions; unused ones are H or OH. Square brackets hold non-standard residues; d marks the D form. Side chains are listed from the residue outwards. Peptide text beside a SMILES is read from it. * marks the point of attachment. Ethylenediamine = C(CN[*:2])N[*:1]; Hyp = O=C(O)[C@@H]1C[C@@H](O)CN1; Phg = N[C@H](C(=O)O)c1ccccc1; CO = O=C([*:1])[*:2]; Bn = c1ccc(C*)cc1
Key:
[1] = DTPA solubility in EtOH/PG as a function of ETA/DTPA molar ratio; type: physicochemical
[2] = Octreotide stability in lipid formulations (assay by gradient HPLC-UV after storage); settings: for effect on octreotide stability compared to the reference formulation (FIG. 7): alkylamine used to solubilize 100 ppm EDTA, alkylamine:EDTA 4:1; for effect on octreotide stability compared to the reference formulation (FIG. 7) / effect on OCT(Cl) stability vs. the reference formulation (FIG. 6): up to two months; for effect on OCT(Cl) stability vs. the reference formulation (FIG. 6): additive mixtures in EtOH/PG filtered to remove non-dissolved particles, 5 ppm Fe3+
[3] = placebo SPC/GDO 50/50 and 35/65 with EtOH; 100 ppm EDTA; with or without 5 ppm Fe3+; 60° C./ambient RH and 40° C./75% RH
Procedure: Oxygen concentration in the vial headspace was measured using a PC-controlled PreSens Microx TX3 micro fiber optic oxygen transmitter equipped with a needle-type optical oxygen microsensor (NTH, 140 μm flat broken tip). Measurements were performed by penetrating the oxygen microsensor through the vial rubber stopper into the vial headspace and measuring the oxygen concentration until a stable readout was obtained (about 1 min).
Some formulations also contained 5 ppm Fe^3+ to enhance the oxidative stress conditions (Table 10).

[4] = 2.00 wt % SOM(Cl) in SPC/GDO/EtOH/PG; 100 ppm EDTA with ETA; 40° C./75% RH and 25° C./60% RH, up to three months
[5] = cited from earlier work
SSTR1-SSTRS = settings: cited from earlier work
[6] = single subcutaneous dose, human plasma; cited from earlier work
[7] = 0.38 wt % EDTA in EtOH/PG (1/1 wt/wt)

DTPA solubility in EtOH/PG without using ETA ([1]; 0.08 wt % DTPA): not soluble | required minimum amount of ETA needed to solubilize DTPA ([1]; 0.08 wt % DTPA in EtOH/PG (50/50 w/w)): about 4.3 mol of ETA per 1 mol of DTPA
Compound: O=C(O)CN(CCN(CC(=O)O)CC(=O)O)CCN(CC(=O)O)CC(=O)O [DTPA, Diethylenetriaminepentaacetic (pentetic) acid]

Compound: OCCNCCO [DiETA, Diethanolamine]
effect on octreotide stability compared to the reference formulation (FIG. 7) ([2]; 40° C./75% RH): enhanced the peptide stability to a similar high degree

Compound: O.O.O=C(O)CN(CCN(CC(=O)O)CC(=O)O)CC(=O)O.[Na].[Na] [EDTA(Na), Ethylenediaminetetraacetic acid disodium dihydrate]
effect on OCT(Cl) stability vs. the reference formulation (FIG. 6) ([2]; 40° C./75% RH): negative effect

Compound: O=C(O)CN(CCN(CC(=O)O)CC(=O)O)CC(=O)O [EDTA, Ethylenediaminetetraacetic (edetic) acid]
effect on octreotide stability vs. reference formulation (FIG. 2) ([2]; 2.27 wt % OCT(Cl) in SPC/GDO/EtOH/PG, 0-750 ppm EDTA with ETA, 40° C./75% RH, 0, 1, 2 months, air headspace): dramatically enhanced the peptide stability | EDTA concentration interval of maximum stabilization effect ([2]; 2.27 wt % OCT(Cl) in SPC/GDO/EtOH/PG, 40° C./75% RH): 50-250 ppm | effect on octreotide stability (octreotide assay, FIG. 1) ([2]; 2.34 wt % OCT(Cl) in SPC/GDO/EtOH/PG, 100 ppm EDTA with 100 ppm ETA vs none, […], up to three months, air headspace): dramatically enhanced the peptide stability | effect on long-term octreotide stability (FIG. 3) ([2]; 100 ppm EDTA with ETA, pre-filled glass syringes, 25° C./60% RH, up to twelve months): significantly enhanced the long-term peptide stability | effect on OCT(Cl) stability vs. the reference formulation (FIG. 6) ([2]; 40° C./75% RH): negative effect | effect on consumption of headspace oxygen (lipid oxidation, FIG. 15-18) [3]: drastically reduce consumption of oxygen | effect on SOM stability (SOM assay, FIG. 9) [4]: dramatically enhanced the peptide stability

Compound: NCCO [ETA, Ethanolamine]
effect on octreotide stability compared to the reference formulation (FIG. 7) ([2]; 40° C./75% RH): enhanced the peptide stability to a similar high degree

Compound: C[C@@H](O)[C@@H]1NC(=O)[C@H](CCCCN)NC(=O)[C@@H](Cc2c[nH]c3ccccc23)NC(=O)[C@H](Cc2ccccc2)NC(=O)[C@@H](NC(=O)[C@H](N)Cc2ccccc2)CSSC[C@@H](C(=O)N[C@H](CO)[C@@H](C)O)NC1=O [Octreotide, D-Phe-Cys-Phe-D-Trp-Lys-Thr-Cys-Thr-ol (2-7 disulphide bridge)]
terminal half-life ([5]; in vivo): around 1.7 hours | selectivity for SSTR2 and SSTRS (SSTR1-SSTRS): high selectivity

Compound: NCCCC[C@@H]1NC(=O)[C@@H](Cc2c[nH]c3ccccc23)NC(=O)[C@H](c2ccccc2)NC(=O)[C@@H]2C[C@@H](OC(=O)NCCN)CN2C(=O)[C@H](Cc2ccccc2)NC(=O)[C@H](Cc2ccc(OCc3ccccc3)cc2)NC1=O [pasireotide] (cyclo([Hyp]([CO-Ethylenediamine])[Phg][dW]KY(Bn)F))
initial half-life following the peak [6]: 2 to 3 h

required minimum amount of alkylamine needed to solubilize EDTA [7]: about 4 mol per 1 mol of EDTA
Compound: NC(CO)CO [serinol]

Compound: Ala-Gly-Cys-Lys-Asn-Phe-Phe-Trp-Lys-Thr-Phe-Thr-Ser-Cys [SST-14]
biological half-life ([5]; natural SST-14): 1-3 minutes | affinity of the five SSTR types (SSTR1-SSTRS; SSTR1-SSTRS): equally high affinity
